Data on 2 molecules can be found in patent US12378247B2, “Mesylate salt of para-topolin, compositions containing said salt and use thereof” (USTAV EXPERIMENTALNI BOTANIKY AV CR, V. V. I., priority 2020, dated 2025).

Data set [1] in a line: Calcein AM cytotoxicity assay, HOS. It counts as cell-based, human. To be noted: human, HOS cells (osteosarcoma), 3-day Calcein-AM assay, read-out: Cytotoxic activity IC50. An excerpt: (§1) Because toxic compounds negatively influence metabolic processes of cells, many standard cytotoxicity assays are based on measurement of metabolisation rate of various artificial substrates. Resulting product is then quantified, for example, by means of spectrometry. The assays can be easily modified for use in 96-well plates. For evaluation of cytotoxicity of the […] of this invention, a microtiter assay based on quantification of metabolisation of Calcein AM was used. The assay is widely used in drug screening programs and in chemosensitivity testing. In live cells, Calcein AM is enzymatically hydrolysed and accumulation of the resulting calcein is manifested by green fluorescence. […]
(§2) Approximately 10,000 cells in 80 μL of medium were seeded into 96-well microtitre plates. […] The fluorescence of free calcein was then quantified using a Fluoroscan Ascent fluorometer (Microsystems), and the percentage of surviving cells in each well was calculated by dividing the OD obtained from each cell with exposed cells by the mean OD obtained from control wells×100%. […]

Data set [2] is described as follows: Stability study by XRPD diffraction. It counts as physicochemical. The conditions noted are these: 25° C., on light, after 30 days. How it is done:
X-ray powder diffraction studies were performed on a Bruker D8 Advance ECO diffractometer with Cu K-alpha radiation and SSD160 detector. Approximately 5 mg of sample was gently compressed on the XRPD sample holder. The sample was then loaded into a Bruker D8-Discover diffractometer in transmission mode and analyzed using the experimental conditions shown below: XRPD measurement conditions
Sample stability was tested at 25° C. for […] on light. […] XRPD of samples were taken after 30 days to investigate any solid form change (any difractogram/pattern change).

Data set [3] can be described thus: Calcein AM cytotoxicity assay, HELA. It is filed as cell-based. The conditions noted are these: human, HeLa cells (cervical carcinoma), 3-day Calcein-AM assay, read-out: Cytotoxic activity IC50.
Description: as §1, §2

Data set [4] in a line: Pharmacokinetics / bioavailability upon intraduodenal administration in rats. It is filed as in vivo, male Sprague-Dawley rats. The conditions noted are these: rat. How it is done:
Preparation of Dosing Solutions for In-Vivo Study: Para-topolin and para-topolin mesylate salt were stored at room temperature under desiccant and protected from light. The dosing solutions were prepared fresh from powders on the day of dosing. The dosing solution for intravenous administration (IV) was prepared at 1 mg/mL (free acid) in 50:50 DMSO: saline. The dosing solution for intraduodenal administration (ID) was prepared at 2 mg/mL in a 0.2% sodium carboxymethyl cellulose (Na CMC) aqueous solution.
Administration to Animals: The pharmacokinetics of para-topolin base and mesylate was evaluated in fasted male Sprague-Dawley rats. […]
Each blood sample was collected from the rats via a jugular vein cannula and placed into chilled polypropylene tubes containing sodium heparin as an anticoagulant. […] The total concentration of para-topolin in plasma samples were analyzed by LC-MS/MS after an overnight incubation with glucuronidase/arylsulfatase enzyme mixture. Pharmacokinetic parameters were calculated using the WinNonlin software.
Analysis of Plasma Samples: An LC-MS/MS analytical method for the determination of […] in rat plasma was developed (Novák et al., Phytochemistry, 69, 2008:2214-2224). Prior to sample analysis, a standard curve was analyzed to determine the specificity, range, and linearity of the method. […]

Data set [5] concerns HOS (human osteosarcoma). Description: Calcein AM cytotoxicity assay, HOS. It is filed as cell-based. To be noted: 3-day Calcein-AM assay, read-out: Cytotoxic activity IC50.
Description: as §1, §2

For data set [6] the following is noted: water; reported value; cited from earlier work.
The test system of data set [7] is HeLa (cervical carcinoma). Description: Calcein AM cytotoxicity assay, HELA. It is filed as cell-based. The conditions noted are these: 3-day Calcein-AM assay, read-out: Cytotoxic activity IC50.
Description: as §1, §2

Where a name gives a salt, the structure may show the parent alone.

What is called IC50 is the concentration that gives 50% inhibition. For `Oc1ccc(CNc2ncnc3nc[nH]c23)cc1` [para-topolin mesylate, 6-(4-hydroxybenzylamino) purine (para-topolin) mesylate (methylsulphonate)], the IC50 at 72 h in data set [1] and in data set [3] was above 167 µM throughout. Besides, the results for the “Solid-state stability (structure, color, XRPD pattern change)” value in data set [2] (listed as crystalline para-topolin mesylate salt) and in data set [2] (listed as para-topolin mesylate crystalline salt) were “No structure nor color change” and “no structural pattern changes detected”, respectively. For the same molecule, the “time after ID dosing at which Cmax was observed” value in data set [4] is at most 15 min.

With `Oc1ccc(CNc2ncnc3nc[nH]c23)cc1` [para-topolin, 6-(4-Hydroxybenzylamino) purine], the IC50 in data set [5] and in data set [7] was above 167 µM each time. For the same molecule, the “aqueous solubility (reported)” value in data set [6] was below 40 µg/mL.
